Here are results for three compounds from patent US20150231109A1, “COMBINATIONS (CATECHINS AND METHOTREXATE) FOR USE IN THE TREATMENT OF MELANOMAS” (UNIVERSIDAD DE MURCIA, priority 2012, published 2015).

Data set [1] has as its system low passage patient-derived melanoma cells bearing MEK and BRAF mutations. Description: MTT assay on low passage patient-derived melanoma cell lines with BRAF and MEK1 or MEK2 mutations. The class given is cell-based, human. The note with it: BRAF-inhibitor and MEK-inhibitor resistant lines; MTX/TMECG 1 μM/10 μM, PLX-4720 1 μM. On the technique in general: Formazan colour is commonly taken as a measure of viable cells.
Method: G, MTT assay indicating effects of MTX/TMECG (1 μM/10 μM) and PLX-4720 (1 μM) treatment on low passage patient-derived melanoma cells bearing indicated MEK and BRAF mutations. Cells were treated with vehicle only (•), PLX-4720 ( ), or with a combination of MTX+TMECG (Δ). Note the number of cells at the start of the experiment was at the limit of detection. […] Error bars show mean±SD.
MTX/TMECG was tested against two low passage melanoma cell lines (fewer than 10 passages) derived from patients with activating BRAF mutations that are resistant to both BRAF-inhibitor and MEK-inhibitor therapy, owing to the presence of activating mutations in MEK1 or MEK2 (Nikolaev et al., 2011). In the MTT assays (FIGS. 2G and 5A) a low starting number of cells (2×10^3) was used, so that any proliferation could be readily visualized.
Cell viability was evaluated using the 3-(4,5-dimethylthiazol-2-yl)-2,5-diphenyltetrazolium bromide (MTT) cell proliferation assay.

For the next data set, the system named is SK-MEL-28 melanoma cells. The data set can be described thus: HPLC/MS analyses of MTX, TMECG-QM and DHF in whole cell extracts. It is filed as cell-based, human. The conditions noted are these: SK-MEL-28 whole cell extracts, 24 h, MTX 1 μM and/or TMECG 10 μM; control 3.8 ± 1.1. The procedure:
By way of example, the present inventors have shown that an active agent, such as MTX, may be used to increase TYR expression, thereby increasing the conversion of a catechin to its quinone methide form. The inventors have undertaken HPLC analyses of MTX, TMECG-QM, and DHF in whole cell extracts of SK-MEL-28 melanoma cells that were subjected to MTX (1 μM) and TMECG (10 μM) individual and combined treatments (see Table 1).

A short description of data set [2]: Toxicology in non-tumor inoculated C57BL/6 mice. It is filed as in vivo, mouse. The procedure: FIGS. 4A-N. MTX and TMECG combination therapy is effective in vivo. A, A375 melanoma cells were included in a human reconstructed skin model and were treated with MTX (1 μM) and/or TMECG (10 μM) for 14 days. B, B16/F10 melanoma cells were injected subcutaneously into C57/B16 mice. Images show tumor size 17 days post-injection in control and treated mice. […] C, Luciferase imaging of control and MTX/TMECG-treated mice 12 days post-tumor cell injection. Beetle luciferin (120 mg/kg of mouse) was injected intraperitoneally. The values (means±s.d.) are representative of three independent experiments. *P=0.007; **P=0.002. D, Bioluminescent imaging of livers at 14 days post-intrasplenic injection of B16-F10-luc-G5 cells from untreated and MTX/TMECG-treated mice are shown. E, Quantification of macrometastases (0-10, 10-25 or >25) after treatment with vehicle (control), MTX (1 mg/kg/day), and/or TMECG (50 mg/kg/day). F, Photomicrograph of H&E-stained, 4 μm formalin-fixed, paraffin-embedded liver sections from control (DMSO) and MTX/TMECG-treated mice (1 and 50 mg/kg/day, respectively) (5× magnification). G, MTX activation of MITF and tyrosinase activates the melanoma-specific antifolate activity of TMECG, leading to depletion of cellular dTTP and apoptosis. H, Sections stained with hematoxylin and eosin show the effect of MTX/TMECG on B16/F10 primary splenic tumors. Xenograft tumors treated with DMSO (vehicle) or MTX/TMECG (1 mg/kg/day and 50 mg/kg/day, respectively) over 14-days. […] Representative images taken from two independent experiments (n=5 for each experiment). Scale bar=200 μm and is applicable to both panels. I, B16/F10 melanoma cells, expressing a luciferase reporter, were injected subcutaneously to mice. Mice were divided in two groups (n=7) and treated with vehicle (DMSO) or MTX/TMECG (1 mg/kg/day and 10 mg/kg/day, respectively) over 21-days. Then, tumors were pooled and dissociated. B16/F10 cells extracted from tumors were examined for their sensitivity to the MTX/TMECG combination (1 μM and 10 μM, respectively) using quantification of the luminescence signal (left panel). J, The histogram represents the number of B16/F10-luc2 cells remaining after 3 days of MTX/TMECG treatment with respect to vehicle treated controls (100%). […] K, The morphology of tumor dissociated B16/F10-luc2 cells before and after of MTX/TMECG treatment. Scale bar refers to all panels. L, Histograms represent the number of copies of TYR mRNA for every 1×10^3 copies of β-actin±SD of three independent experiments. […]
To explore the toxicity of TMECG and MTX, these agents (at indicated concentrations) were administrated intradermally to the back of non-tumor inoculated female C57BL/6 mice (n=10), and body weight monitored every other day. […]

Data set [3] can be described thus: Pharmacokinetic studies in mice plasma. The class given is in vivo. The note with it: mouse, ip, male C57BL/6 mice, intra-peritoneal TMECG 50 mg/kg alone or with MTX 50 mg/kg. The procedure:
Pharmacokinetic studies were performed in male C57BL/6 mice after intra-peritoneal injection of MTX (50 mg/kg) and/or TMECG (50 mg/kg). Animals were anesthetized with CO2, and whole blood samples (˜0.5 mL) were collected via cardiac puncture. Samples for drug quantification were collected from different animals (in triplicate) at 5, 15, and 30 min and at 1, 2, 4, and 6 hr post-dose. Whole blood samples were transferred to lithium heparin blood collection tubes, and then centrifuged at 10,000 rpm for 10 min at 4° C. After plasma deproteinization with 5% trichloroacetic acid (TCA), MTX and TMECG plasma concentrations were calculated by HPLC. Pharmacokinetic parameters were estimated using the WinNonlin software package (WinNonlin Professional version 5.1., Pharsight Corporation, CA). WinNonlin model 200 was used for the non-compartmental analysis of the concentration-time data. The area under the plasma concentration-time curve (AUClast) from time 0 to the last point (tlast) with measurable concentration (Clast) was estimated using a linear trapezoidal approximation (AUClast). The elimination half-life (t1/2) was calculated as ln2/kel, where kel (elimination rate constant) was estimated using least squares regression analysis of the concentration-time data obtained during the terminal log-linear elimination phase. The maximum plasma concentrations (Cmax) were estimated directly from the data, with tmax being defined as the time of the first occurrence of Cmax.

The test system of the next data set is B16/F10 melanoma cells. Description: Subcutaneous B16/F10 melanoma model in C57BL/6 mice. It is filed as in vivo, mouse. The conditions noted are these: compared to untreated mice. As to the method:
FIGS. 4A-N. MTX and TMECG combination therapy is effective in vivo. A, A375 melanoma cells were included in a human reconstructed skin model and were treated with MTX (1 μM) and/or TMECG (10 μM) for 14 days. B, B16/F10 melanoma cells were injected subcutaneously into C57/B16 mice. Images show tumor size 17 days post-injection in control and treated mice. […] C, Luciferase imaging of control and MTX/TMECG-treated mice 12 days post-tumor cell injection. Beetle luciferin (120 mg/kg of mouse) was injected intraperitoneally. The values (means±s.d.) are representative of three independent experiments. *P=0.007; **P=0.002. […] E, Quantification of macrometastases (0-10, 10-25 or >25) after treatment with vehicle (control), MTX (1 mg/kg/day), and/or TMECG (50 mg/kg/day). […] B16/F10 cells extracted from tumors were examined for their sensitivity to the MTX/TMECG combination (1 μM and 10 μM, respectively) using quantification of the luminescence signal (left panel). […]
Animals were bred and maintained according to the Spanish legislation on the ‘Protection of Animals used for Experimental and other Scientific Purposes’ and in accordance with the directives of the European community. […] Primary spleen tumors and hepatic metastases at 12 and 14 days, respectively, were analyzed using the IVIS Imaging System (Caliper Life Sciences). […]

The subject of data set [4] is B16/F10 primary splenic tumors. The data set can be described thus: Primary spleen tumors after intrasplenic injection of luciferase-tagged B16/F10 cells. The class given is in vivo, mouse.
Method: C, Luciferase imaging of control and MTX/TMECG-treated mice 12 days post-tumor cell injection. Beetle luciferin (120 mg/kg of mouse) was injected intraperitoneally. The values (means±s.d.) are representative of three independent experiments. *P=0.007; **P=0.002. […] Xenograft tumors treated with DMSO (vehicle) or MTX/TMECG (1 mg/kg/day and 50 mg/kg/day, respectively) over 14-days. […] Representative images taken from two independent experiments (n=5 for each experiment). Scale bar=200 μm and is applicable to both panels. I, B16/F10 melanoma cells, expressing a luciferase reporter, were injected subcutaneously to mice. Mice were divided in two groups (n=7) and treated with vehicle (DMSO) or MTX/TMECG (1 mg/kg/day and 10 mg/kg/day, respectively) over 21-days. Then, tumors were pooled and dissociated. B16/F10 cells extracted from tumors were examined for their sensitivity to the MTX/TMECG combination (1 μM and 10 μM, respectively) using quantification of the luminescence signal (left panel). […] Scale bar refers to all panels. […] Mice were treated with vehicle, MTX (1 mg/kg/day), and/or TMECG (50 mg/kg/day). […] Scale bar refers to all panels.
A, Luciferase imaging of vehicle (control), MTX, and/or TMECG-treated mice 12 days post-tumor cell injection. Firefly luciferin (120 mg/kg of mouse) was injected intraperitoneally. The values are representative of three independent experiments. […] The number of cells was estimated by extrapolation of the experimental luciferase signal to calibration curves. A straight line with a good linear correlation coefficient (0.998) was obtained by plotting luciferase signal vs number of B16/F10-luc2 cells. Treatment of mice (n=6) started 24 hr after tumor induction (Day 1). For all experiments: *p<0.05 with respect to control mice; #p<0.05 with respect to individual MTX or TMECG treatments.
The target of the next data set is glutamate dehydrogenase (Homo sapiens, UniProt P00367). The data set can be described thus: Inhibition of glutamate dehydrogenase. The class given is biochemical. The note with it: data not shown.
Chain of glutamate dehydrogenase (P00367 54-558): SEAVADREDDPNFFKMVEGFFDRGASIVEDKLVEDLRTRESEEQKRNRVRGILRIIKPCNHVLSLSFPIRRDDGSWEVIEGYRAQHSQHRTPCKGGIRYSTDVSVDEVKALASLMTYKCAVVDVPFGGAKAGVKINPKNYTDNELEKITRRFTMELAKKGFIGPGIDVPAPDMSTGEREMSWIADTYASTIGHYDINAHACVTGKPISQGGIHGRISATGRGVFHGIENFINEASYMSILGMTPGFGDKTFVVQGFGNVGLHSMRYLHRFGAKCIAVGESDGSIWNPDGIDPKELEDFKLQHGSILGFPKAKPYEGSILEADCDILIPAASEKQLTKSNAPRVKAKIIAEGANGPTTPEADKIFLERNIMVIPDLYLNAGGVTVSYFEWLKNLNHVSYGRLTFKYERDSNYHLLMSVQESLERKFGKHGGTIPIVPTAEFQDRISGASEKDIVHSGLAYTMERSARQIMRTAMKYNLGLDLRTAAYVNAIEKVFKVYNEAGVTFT
Data set [5] deals with 5-cytosine DNA methyltransferase-1 (Homo sapiens, UniProt P26358). The data set can be described thus: Inhibition of 5-cytosine DNA methyltransferase-1. The class given is biochemical. The note with it: data not shown.
Chain of 5-cytosine DNA methyltransferase-1 (P26358 whole entry): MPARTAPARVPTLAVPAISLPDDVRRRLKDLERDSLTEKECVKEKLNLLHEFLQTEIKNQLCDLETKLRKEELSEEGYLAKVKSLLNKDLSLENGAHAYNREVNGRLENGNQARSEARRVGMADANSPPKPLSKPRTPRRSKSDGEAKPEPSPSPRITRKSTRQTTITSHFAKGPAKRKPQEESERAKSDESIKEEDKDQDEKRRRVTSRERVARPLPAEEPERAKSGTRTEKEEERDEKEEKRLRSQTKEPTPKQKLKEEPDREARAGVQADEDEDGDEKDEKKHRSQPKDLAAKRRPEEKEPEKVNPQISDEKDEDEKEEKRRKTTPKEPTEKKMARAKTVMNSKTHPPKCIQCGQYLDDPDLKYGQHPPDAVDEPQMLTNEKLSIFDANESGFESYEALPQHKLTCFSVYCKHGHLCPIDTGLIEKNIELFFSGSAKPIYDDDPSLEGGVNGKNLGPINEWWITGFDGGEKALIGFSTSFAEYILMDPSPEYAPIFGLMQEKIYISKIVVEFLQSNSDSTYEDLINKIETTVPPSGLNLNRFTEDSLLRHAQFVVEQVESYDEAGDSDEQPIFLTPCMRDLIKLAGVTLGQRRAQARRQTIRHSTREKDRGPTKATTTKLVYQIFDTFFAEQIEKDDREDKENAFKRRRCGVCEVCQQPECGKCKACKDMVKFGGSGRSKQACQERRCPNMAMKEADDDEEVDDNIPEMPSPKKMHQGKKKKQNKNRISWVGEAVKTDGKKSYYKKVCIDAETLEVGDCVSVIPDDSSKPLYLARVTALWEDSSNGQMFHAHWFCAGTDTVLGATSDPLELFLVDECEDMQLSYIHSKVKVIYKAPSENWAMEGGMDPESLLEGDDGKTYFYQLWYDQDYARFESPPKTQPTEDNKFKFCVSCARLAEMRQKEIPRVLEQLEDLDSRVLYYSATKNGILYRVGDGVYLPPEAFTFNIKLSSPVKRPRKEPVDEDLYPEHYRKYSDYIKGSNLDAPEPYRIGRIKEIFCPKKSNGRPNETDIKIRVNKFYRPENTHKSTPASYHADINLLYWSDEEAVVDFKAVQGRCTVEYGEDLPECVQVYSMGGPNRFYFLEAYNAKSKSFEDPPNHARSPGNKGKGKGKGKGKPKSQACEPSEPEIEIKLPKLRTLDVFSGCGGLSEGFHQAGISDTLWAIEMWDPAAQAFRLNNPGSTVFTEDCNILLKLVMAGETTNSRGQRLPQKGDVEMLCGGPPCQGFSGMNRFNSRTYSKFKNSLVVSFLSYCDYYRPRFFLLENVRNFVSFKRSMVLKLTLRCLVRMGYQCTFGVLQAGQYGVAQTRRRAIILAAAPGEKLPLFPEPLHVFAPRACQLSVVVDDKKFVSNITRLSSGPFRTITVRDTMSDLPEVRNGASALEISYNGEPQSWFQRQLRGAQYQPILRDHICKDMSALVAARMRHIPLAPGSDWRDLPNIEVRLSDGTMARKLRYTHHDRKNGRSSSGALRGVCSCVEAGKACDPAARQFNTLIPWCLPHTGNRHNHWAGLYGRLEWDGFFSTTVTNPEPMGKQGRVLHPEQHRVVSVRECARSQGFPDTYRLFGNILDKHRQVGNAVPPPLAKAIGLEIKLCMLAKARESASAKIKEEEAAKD
The target of the next data set is T1, DHFR (Homo sapiens, UniProt P00374).
T1 sequence (P00374 1-187): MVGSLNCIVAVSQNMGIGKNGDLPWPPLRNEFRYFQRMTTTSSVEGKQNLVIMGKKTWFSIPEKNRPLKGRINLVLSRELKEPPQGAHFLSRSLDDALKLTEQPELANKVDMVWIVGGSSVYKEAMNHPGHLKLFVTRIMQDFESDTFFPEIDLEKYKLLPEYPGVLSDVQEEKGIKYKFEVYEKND
The conditions noted are these: Sanchez-del-Campo et al., 2009a; cited from earlier work.

For another data set, the system named is proteasome. Description: Inhibition of the proteasome. The class given is biochemical. The note with it: data not shown.

The structures appear in SMILES notation.

With `CCCS(=O)(=O)Nc1ccc(F)c(C(=O)c2c[nH]c3ncc(Cl)cc23)c1F` [PLX-4720], the “proliferation (MTT)” value in [1] is recorded as “failed to impact significantly on proliferation”.
Broadly, the AUC is concentration integrated over time. The Cmax is the maximum level reached in the sampled fluid or tissue. As a reminder, the Tmax is the time from dosing to the highest level. In the case of `COc1cc(C(=O)O[C@@H]2Cc3c(O)cc(O)cc3O[C@@H]2c2ccc(O)c(O)c2)cc(OC)c1OC` [TMECG, 3,4,5-trimethoxy-epicatechin-3-gallate], the DHF intracellular concentration with SK-MEL-28 melanoma cells stood at 4.8 ± 0.9 pmol/10^6 cells. For the same compound, the mouse body weight entry in [2] (TMECG-treated versus untreated groups) is reported as “not significant”. For the same compound, the toxicity in vivo entry in data set [2] (preliminary observations) was “not toxic in vivo”. In addition, the AUC in data set [3] (read-out: TMECG Parameters AUC) was determined as 79100 ng·h/mL. The peak concentration (Cmax) in data set [3] (read-out: TMECG Parameters Cmax) is 39300 ng/mL. In addition, the Tmax in data set [3] (read-out: TMECG Parameters Tmax) is 5.4 min. Moreover, the half-life in data set [3] (read-out: TMECG Parameters t1/2 (converted)) is 107 min. In addition, in the data set with B16/F10 melanoma cells, the tumor growth result is listed as “significantly reduced”. Also, in data set [4] (14 days treatment, MTX 1 mg/kg/day and/or TMECG 50 mg/kg/day), the “necrotic areas in splenic tumors” value was 11%±3%. Also, the “effect on in vivo luciferase signal” value in [4] (MTX or TMECG alone, 12 days post-tumor cell injection) is on record as “around 2 fold”.
As for `COc1cc(C(=O)O[C@H](Cc2c(O)cc(O)cc2O)C(=O)c2ccc(O)c(O)c2)cc(OC)c1OC` [TMECG-QM], the “inhibition of glutamate dehydrogenase” value at glutamate dehydrogenase is given as “does not inhibit”. For the same compound, the “inhibition of 5-cytosine DNA methyltransferase-1” value in data set [5] is recorded as “does not inhibit”. In addition, at DHFR, the “inhibition constant for DHFR” value is reported as “nanomolar order”. For the same compound, in the data set on proteasome, the “inhibition of the proteasome” value is reported as “does not inhibit”.
